In US8852928B2, “LexA-based chemical-inducible gene expression system for use in transgenic animals” (Temasek Life Sciences Laboratory Limited, priority 2007, dated 2014):
Entries after “also recorded” stand apart in the source; their conditions may differ.

Key:
[1] = target: T1, LexPR transactivator (Homo sapiens, UniProt P06401); assay: RT-PCR detection of EGFP transcript after mifepristone withdrawal; format: in vivo, zebrafish; conditions: 5 days after withdrawal; 12 hours induction with 1 μM
T1 construct: expressed in transfected cells; host or cells: germline-transgenic zebrafish (Danio rerio) carrying the Ds transposon driver cassette pDs(krt8:LPR-LOP:G4) or derivatives
T1 sequence (P06401 640-914): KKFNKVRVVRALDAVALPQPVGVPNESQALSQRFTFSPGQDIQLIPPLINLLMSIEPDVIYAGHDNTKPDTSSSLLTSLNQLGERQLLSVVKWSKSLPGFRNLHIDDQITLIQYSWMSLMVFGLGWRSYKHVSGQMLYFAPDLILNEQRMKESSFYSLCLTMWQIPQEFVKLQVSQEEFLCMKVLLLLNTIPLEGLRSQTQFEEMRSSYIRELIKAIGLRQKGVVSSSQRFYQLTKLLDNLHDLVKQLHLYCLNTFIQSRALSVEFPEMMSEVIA

[2] = target: T1, LexPR transactivator; assay: Rate of transcription induction, whole mount in situ hybridization for EGFP transcript; format: in vivo, zebrafish; conditions: 1 μM
Procedure: RNA in situ hybridization: Whole mount in situ hybridization using antisense RNA probes for full length LexPR transactivator and EGFP labeled with digoxigenin (Roche, USA) was carried out as previously described (Oxtoby and Jowett, 1993). After in situ hybridization stained embryos were mounted in PBS-glycerol and viewed using Nikon SMZ1600 stereomicroscope. Images were taken with Nikon DXM1200F digital camera with the Nikon ACT-1 software and processed using Adobe Photoshop 7.0.1 software.
To accurately estimate the rate of induction, it is more appropriate to measure the transcript rather than the protein product, especially if the gene of interest contains sequences for RNAi, microRNA or other non-coding RNAs.

[3] = tested on: zebrafish development; assay: Side effects on development of LexPR transgenic fish upon induction; format: in vivo
From the text: FIG. 13b: Control wild type fish. FIG. 13c: Transgenic F2 embryos harboring the LexPR driver-reporter cassette described in this manuscript.

[4] = target: T1, LexPR transactivator; assay: Control of maternal EGFP expression by treating transgenic females; format: in vivo, zebrafish; conditions: 1 μM for 12 hours before crossing
[5] = target: T1, LexPR transactivator; assay: Time required to switch off EGFP reporter expression after mifepristone withdrawal; format: in vivo, zebrafish; parameters: key to Reporter expression, RU486 incubation / Reporter expression after RU486 withdrawal / Reporter expression, continuous induction (time of RU486 incubation): +: Fluorescence signal is similar to the control.; ±: Fluorescence signal is obviously weaker that in control.; −: No EGFP fluorescence (except autofluorescence)observed using the fluorescent stereomicroscope
From the text: To avoid confusion, the corresponding developmental times are indicated. A Nikon SMZ1600 fluorescent stereomicroscope was used for rough estimation of the EGFP fluorescence.

## CC#C[C@]1(O)CC[C@H]2[C@@H]3CCC4=CC(=O)CCC4=C3[C@@H](c3ccc(N(C)C)cc3)C[C@@]21C [mifepristone]
[1]
  EGFP transcript by RT-PCR after withdrawal: can be detected
[2]
  Time of induction to maximum transcript level: approximately nine
[3]; 1 μM in the growth water 10 hpf onwards
  Effect on embryo development and cell morphology, LexPR driver-reporter F2 embryos: does not affect embryo development and morphology of the EGFP-positive cells
[3]; 10 μM at 1-cell stage, LexPR system
  Side effects on zebrafish development: did not observe obvious side effects
[4]
  Maternal EGFP expression in offspring of treated transgenic F2 females: produced GFP-positive eggs; also recorded: All the F3 embryos showed maternal EGFP expression
[5]; 1 nM, 1 hour RU486 incubation - withdrawal, at 1 h incubation, 37hpf
  Reporter expression, RU486 incubation: −
[5]; 1 nM, 1 hour RU486 incubation, 12 h after withdrawal, 49hpf
  Reporter expression after RU486 withdrawal: −
[5]; 1 nM, 1 hour RU486 incubation, 24 h after withdrawal, 61hpf
  Reporter expression after RU486 withdrawal: −
[5]; 1 nM, 1 hour RU486 incubation, 48 h after withdrawal, 85hpf
  Reporter expression after RU486 withdrawal: −
[5]; 1 nM, 1 hour RU486 incubation, 72 h after withdrawal, 109hpf
  Reporter expression after RU486 withdrawal: −
[5]; 1 nM, 1 hour RU486 incubation, 96 h after withdrawal, 133hpf
  Reporter expression after RU486 withdrawal: −
[5]; 1 nM, 1 hour RU486 incubation, 120 h after withdrawal, 157hpf
  Reporter expression after RU486 withdrawal: −
[5]; 1 nM, 1 hour RU486 incubation, 144 h after withdrawal, 181hpf
  Reporter expression after RU486 withdrawal: −
[5]; 1 nM, 12 hours RU486 incubation - withdrawal, at 12 h incubation, 48hpf
  Reporter expression, RU486 incubation: −
[5]; 1 nM, 12 hours RU486 incubation, 12 h after withdrawal, 60hpf
  Reporter expression after RU486 withdrawal: ±
[5]; 1 nM, 12 hours RU486 incubation, 24 h after withdrawal, 72hpf
  Reporter expression after RU486 withdrawal: −
[5]; 1 nM, 12 hours RU486 incubation, 48 h after withdrawal, 96hpf
  Reporter expression after RU486 withdrawal: −
[5]; 1 nM, 12 hours RU486 incubation, 72 h after withdrawal, 120hpf
  Reporter expression after RU486 withdrawal: −
[5]; 1 nM, 12 hours RU486 incubation, 96 h after withdrawal, 144hpf
  Reporter expression after RU486 withdrawal: −
[5]; 1 nM, 12 hours RU486 incubation, 120 h after withdrawal, 168hpf
  Reporter expression after RU486 withdrawal: −
[5]; 1 nM, 12 hours RU486 incubation, 144 h after withdrawal, 192hpf
  Reporter expression after RU486 withdrawal: −
[5]; 1 nM, 12 hours induction
  Minimal time after RU486 withdrawal to turn off the reporter expression: 1 days
[5]; 1 nM, 24-156 h incubation, 60-192 hpf
  Reporter expression, continuous induction (time of RU486 incubation): ±
[5]; 1 nM, 1 h incubation
  Reporter expression, continuous induction (time of RU486 incubation): −
[5]; 1 nM, 12 h incubation
  Reporter expression, continuous induction (time of RU486 incubation): −
[5]; 1 nM, 13 h incubation, 49hpf
  Reporter expression, continuous induction (time of RU486 incubation): −
[5]; 1 nM, 24 h incubation, 60hpf
  Reporter expression, continuous induction (time of RU486 incubation): ±
[5]; 10 nM, 1 hour RU486 incubation - withdrawal, at 1 h incubation, 37hpf
  Reporter expression, RU486 incubation: −
[5]; 10 nM, 1 hour RU486 incubation, 12 h after withdrawal, 49hpf
  Reporter expression after RU486 withdrawal: ±
[5]; 10 nM, 1 hour RU486 incubation, 24 h after withdrawal, 61hpf
  Reporter expression after RU486 withdrawal: −
[5]; 10 nM, 1 hour RU486 incubation, 48 h after withdrawal, 85hpf
  Reporter expression after RU486 withdrawal: −
[5]; 10 nM, 1 hour RU486 incubation, 72 h after withdrawal, 109hpf
  Reporter expression after RU486 withdrawal: −
[5]; 10 nM, 1 hour RU486 incubation, 96 h after withdrawal, 133hpf
  Reporter expression after RU486 withdrawal: −
[5]; 10 nM, 1 hour RU486 incubation, 120 h after withdrawal, 157hpf
  Reporter expression after RU486 withdrawal: −
[5]; 10 nM, 1 hour RU486 incubation, 144 h after withdrawal, 181hpf
  Reporter expression after RU486 withdrawal: −
[5]; 10 nM, 1 hour induction
  Minimal time after RU486 withdrawal to turn off the reporter expression: 1 days
[5]; 10 nM, 12 hours RU486 incubation - withdrawal, at 12 h incubation, 48hpf
  Reporter expression, RU486 incubation: ±
[5]; 10 nM, 12 hours RU486 incubation, 12 h after withdrawal, 60hpf
  Reporter expression after RU486 withdrawal: +
[5]; 10 nM, 12 hours RU486 incubation, 24 h after withdrawal, 72hpf
  Reporter expression after RU486 withdrawal: ±
[5]; 10 nM, 12 hours RU486 incubation, 48 h after withdrawal, 96hpf
  Reporter expression after RU486 withdrawal: −
[5]; 10 nM, 12 hours RU486 incubation, 72 h after withdrawal, 120hpf
  Reporter expression after RU486 withdrawal: −
[5]; 10 nM, 12 hours RU486 incubation, 96 h after withdrawal, 144hpf
  Reporter expression after RU486 withdrawal: −
[5]; 10 nM, 12 hours RU486 incubation, 120 h after withdrawal, 168hpf
  Reporter expression after RU486 withdrawal: −
[5]; 10 nM, 12 hours RU486 incubation, 144 h after withdrawal, 192hpf
  Reporter expression after RU486 withdrawal: −
[5]; 10 nM, 12 hours induction
  Minimal time after RU486 withdrawal to turn off the reporter expression: 2 days
[5]; 10 nM, 24-156 h incubation, 60-192 hpf
  Reporter expression, continuous induction (time of RU486 incubation): +
[5]; 10 nM, 1 h incubation
  Reporter expression, continuous induction (time of RU486 incubation): −
[5]; 10 nM, 12 h incubation
  Reporter expression, continuous induction (time of RU486 incubation): ±
[5]; 10 nM, 13 h incubation, 49hpf
  Reporter expression, continuous induction (time of RU486 incubation): ±
[5]; 10 nM, 24 h incubation, 60hpf
  Reporter expression, continuous induction (time of RU486 incubation): +
[5]; 100 nM, 1 hour RU486 incubation - withdrawal, at 1 h incubation, 37hpf
  Reporter expression, RU486 incubation: −
